target: T1, sodium-proton exchanger of subtype 3 (NHE3) (Homo sapiens, UniProt P48764); experiment: Recovery of intracellular pH (pHi) after acidification in LAP1 cells stably expressing NHE3 (BCECF fluorescence, FLIPR); type: cell-based; details: LAP1 cells stably expressing NHE3; pH recovery after acidification; range 1 is % inhibition at 10 μM; read-out: Activity range (inhibitory effect on NHE3)
T1 construct: expressed in transfected cells
T1 sequence (P48764 26-834): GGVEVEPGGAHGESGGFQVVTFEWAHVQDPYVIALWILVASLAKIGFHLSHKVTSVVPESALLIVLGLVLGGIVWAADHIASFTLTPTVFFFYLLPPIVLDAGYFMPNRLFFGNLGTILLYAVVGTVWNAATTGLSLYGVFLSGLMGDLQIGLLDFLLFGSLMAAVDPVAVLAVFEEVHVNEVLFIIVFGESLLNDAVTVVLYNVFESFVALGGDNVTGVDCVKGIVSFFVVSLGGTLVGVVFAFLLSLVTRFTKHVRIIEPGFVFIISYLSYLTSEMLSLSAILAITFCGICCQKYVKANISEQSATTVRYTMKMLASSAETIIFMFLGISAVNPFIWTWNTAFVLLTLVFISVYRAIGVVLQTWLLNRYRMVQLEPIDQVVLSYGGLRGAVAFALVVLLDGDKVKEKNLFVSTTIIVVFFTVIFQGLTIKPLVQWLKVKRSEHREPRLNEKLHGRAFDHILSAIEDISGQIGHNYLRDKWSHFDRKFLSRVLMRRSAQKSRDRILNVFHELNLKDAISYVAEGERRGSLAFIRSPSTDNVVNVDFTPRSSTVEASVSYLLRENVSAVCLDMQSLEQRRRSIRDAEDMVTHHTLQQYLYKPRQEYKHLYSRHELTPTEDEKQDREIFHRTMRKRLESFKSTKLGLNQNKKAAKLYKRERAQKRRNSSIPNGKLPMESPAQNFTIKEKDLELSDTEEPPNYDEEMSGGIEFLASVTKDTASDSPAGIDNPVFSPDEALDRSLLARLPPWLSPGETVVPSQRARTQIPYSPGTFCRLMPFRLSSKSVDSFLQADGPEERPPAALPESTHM

Structure (SMILES) | IC50 [µM] | inhibition at 10 µM [%]
CC(=O)Nc1cccc(O[C@H]2c3cc(Cl)cc(Cl)c3C[C@@H]2N2CC3CNCC3C2)c1 (mixture of isomers) [Example 689, N-{3-[rac-trans-(1,2)-4,6-dichloro-2-(hexahydropyrrolo[3,4-c]pyrrol-2-yl)indan-1-yloxy]phenyl}acetamide] | < 1 | 
COCCN(C)[C@H]1Cc2c(Cl)cc(Cl)cc2[C@@H]1Oc1ccc(-n2c(C)nnc2C)cc1 [Example 243, {trans-(1S,2S)-4,6-dichloro-1-[4-(3,5-dimethyl-[1,2,4]triazol-4-yl)phenoxy]indan-2-yl}-(2-methoxyethyl)-methylamine] | < 1 | 
NC(=O)Nc1cccc(O[C@@H]2c3ccccc3C[C@H]2N2CCC[C@H](N)C2)c1 (racemic) [Example 232, {3-[rac-trans-(1,2)-2-((S)-3-aminopiperidin-1-yl)indan-1-yloxy]phenyl}urea] | 1 to 10 | 
N#Cc1ccc(O[C@H]2c3ccccc3CC[C@@H]2N2CCC[C@@H](N)C2)cc1 (racemic) [Example 516, 4-[rac-trans-(1,2)-2-((R)-3-aminopiperidin-1-yl)-1,2,3,4-tetrahydronaphthalen-1-yloxy]benzonitrile] | < 1 | 
Cc1nnc(C)n1-c1ccc(O[C@H]2c3cc(Cl)cc(Cl)c3C[C@@H]2N2CC[C@@H](F)C2)cc1 [Example 561, 4-{4-[trans-(1S,2S)-4,6-dichloro-2-((R)-3-fluoropyrrolidin-1-yl)indan-1-yloxy]phenyl}-3,5-dimethyl-4H-[1,2,4]triazole] | < 1 | 
NC(=O)c1cc(Cl)ccc1O[C@H]1c2cc(Cl)cc(Cl)c2C[C@@H]1N1CCC1 [Example 353, 2-((1S,2S)-2-azetidin-1-yl-4,6-dichloroindan-1-yloxy)-5-chlorobenzamide] |  | 20 to 50
CS(=O)(=O)c1ccc(O[C@H]2c3cc(Cl)cc(F)c3C[C@@H]2N2CCCC2)cc1 (racemic) [Example 293, 1-[rac-trans-(1,2)-6-chloro-4-fluoro-1-(4-methanesulfonylphenoxy)indan-2-yl]pyrrolidine] | 1 to 10 | 
N#Cc1ccc2cccc(O[C@H]3c4ccccc4CC[C@@H]3N3CCOCC3)c2n1 (racemic) [Example 594, 8-(rac-trans-(1,2)-2-morpholin-4-yl-1,2,3,4-tetrahydronaphthalen-1-yloxy)quinoline-2-carbonitrile] |  | 20 to 50
N[C@@H]1CCCN([C@H]2CCc3ccccc3[C@@H]2Oc2ccc(Br)cc2-c2cc[nH]n2)C1 (racemic) [Example 117, (R)-1-{rac-trans-(1,2)-1-[4-bromo-2-(1H-pyrazol-3-yl)phenoxy]-1,2,3,4-tetrahydronaphthalen-2-yl}piperidin-3-ylamine] | 1 to 10 | 
N[C@@H]1CCCN([C@H]2Cc3c(Cl)cc(Cl)cc3[C@@H]2Oc2ccc(F)c3cccnc23)C1 [Example 27, (R)-1-[(1S,2S)-4,6-dichloro-1-(5-fluoroquinolin-8-yloxy)indan-2-yl]piperidin-3-ylamine] | < 1 | 
CS(=O)(=O)c1ccc(O[C@H]2c3cc(Cl)cc(Cl)c3C[C@@H]2N2CCC(N)(C(F)(F)F)C2)cc1 (mixture of isomers) [Example 302, 1-[trans-(1S,2S)-4,6-dichloro-1-(4-methanesulfonylphenoxy)indan-2-yl]-3-trifluoromethylpyrrolidin-3-ylamine] |  | 20 to 50
Cc1nnc(C)n1-c1ccc(O[C@H]2c3cc(Cl)cc(Cl)c3C[C@@H]2N2CC[C@@H](O)C2)c(F)c1F [Example 126, (R)-1-{trans-(1S,2S)-4,6-dichloro-1-[4-(3,5-dimethyl-[1,2,4]triazol-4-yl)-2,3-difluorophenoxy]indan-2-yl}pyrrolidin-3-ol] | < 1 | 
CS(=O)(=O)c1ccc(O[C@@H]2c3ccccc3C[C@@H]2n2ccnc2)cc1 (racemic) [Example 261, 1-[rac-cis-(1,2)-1-(4-methanesulfonylphenoxy)indan-2-yl]-1H-imidazole] |  | 20 to 50
CS(=O)(=O)c1ccc(O[C@@H]2c3ccccc3C[C@H]2NC2CCC2)cc1 (racemic) [Example 708, Cyclobutyl-[rac-trans-(1,2)-1-(4-methanesulfonyl-phenoxy)-indan-2-yl]-amine] | 1 to 10 | 
N#Cc1ccc(O[C@H]2c3cc(Cl)cc(Cl)c3C[C@@H]2N2CCC[C@@H](N)C2)c(F)c1 [Example 479, 4-[(1S,2S)-2-((R)-3-aminopiperidin-1-yl)-4,6-dichloroindan-1-yloxy]-3-fluorobenzonitrile] | < 1 | 
CC(=O)Nc1cccc(O[C@H]2c3ccccc3CC[C@@H]2N2CCC[C@@H](N)C2)c1 (racemic) [Example 676, N-{3-[rac-trans-(1,2)-2-((R)-3-aminopiperidin-1-yl)-1,2,3,4-tetrahydronaphthalen-1-yloxy]phenyl}acetamide] | 1 to 10 | 
Cc1nnc(C)n1-c1ccc(O[C@H]2c3cc(F)cc(F)c3C[C@@H]2N2CC[C@@H](O)C2)c(Cl)c1 [Example 109, (R)-1-{(1S,2S)-1-[2-chloro-4-(3,5-dimethyl-[1,2,4]triazol-4-yl)phenoxy]-4,6-difluoroindan-2-yl}pyrrolidin-3-ol] | < 1 | 
CS(=O)(=O)c1ccc(O[C@H]2c3ccccc3C[C@@H]2N2CCCC2)c(Cl)c1Cl (racemic) [Example 263, 1-[rac-trans-(1,2)-1-(2,3-dichloro-4-methanesulfonylphenoxy)indan-2-yl]pyrrolidine] | < 1 | 
N#Cc1cc(Cl)ccc1O[C@H]1c2ccccc2CC[C@@H]1N1CCOCC1 (racemic) [Example 585, 5-chloro-2-(rac-trans-(1,2)-2-morpholin-4-yl-1,2,3,4-tetrahydronaphthalen-1-yloxy)benzonitrile] |  | 20 to 50
Cc1nc(C(C)(C)C)cn1-c1ccc(O[C@H]2c3cc(Cl)cc(Cl)c3C[C@@H]2N2CC[C@@H](O)C2)c(F)c1 [Example 729, (R)-1-{trans-(1S,2S)-1-[4-(4-tert-Butyl-2-methyl-imidazol-1-yl)-2-fluoro-phenoxy]-4,6-dichloro-indan-2-yl}-pyrrolidin-3-ol] | 1 to 10 | 
N[C@@H]1CCCN([C@@H]2Cc3ccccc3[C@H]2Oc2ccc(-n3ccnc3)cc2)C1 (racemic) [Example 72, (R)-1-[rac-trans-(1,2)-1-(4-imidazol-1-ylphenoxy)indan-2-yl]piperidin-3-ylamine] | < 1 | 
CC(=O)Nc1cccc(O[C@H]2c3cc(F)cc(Cl)c3C[C@@H]2N2CCC[C@@H](N)C2)c1 (racemic) [Example 677, N-{3-[rac-trans-(1,2)-2-((R)-3-aminopiperidin-1-yl)-4-chloro-6-fluoroindan-1-yloxy]phenyl}acetamide] | < 1 | 
CN(C)Cc1ccc(O[C@H]2c3ccccc3CC[C@@H]2N2CCC[C@H](N)C2)cc1 (racemic) [Example 177, (S)-1-[rac-trans-(1,2)-1-(4-dimethylaminomethylphenoxy)-1,2,3,4-tetrahydronaphthalen-2-yl]piperidin-3-ylamine] |  | 20 to 50
CN1C[C@@H]2CN([C@H]3Cc4c(Cl)cc(Cl)cc4[C@@H]3Oc3ccc(S(C)(=O)=O)cc3)C[C@@H]2C1 [Example 8, 2-[trans-(1S,2S)-4,6-dichloro-1-(4-methanesulfonylphenoxy)indan-2-yl]-5-methyloctahydropyrrolo[3,4-c]pyrrole] | < 1 | 
COc1cccc(F)c1O[C@@H]1c2ccccc2C[C@H]1N1CCC(N)C1 (mixture of isomers) [Example 266, 1-[rac-trans-(1,2)-1-(2-fluoro-6-methoxyphenoxy)indan-2-yl]pyrrolidin-3-ylamine] | 1 to 10 | 
